Data set [1] in a line: Volume of distribution at steady state in Sprague-Dawley rat at 1 mg/kg, iv. The format is ADME, organism-based. On the set-up: dose 1 mg/kg, route intravenous. The note with it: in vivo, read-out: Vdss.
The next data set deals with Brain. Description: Drug level in Sprague-Dawley rat brain at 10 mg/kg, po. The format is ADME, organism-based. Details: dose 10 mg/kg, route oral. The note with it: in vivo.
Data set [2] in a line: Oral bioavailability in Sprague-Dawley rat. The class given is ADME, organism-based. The note with it: in vivo.
For data set [3], the system named is Rattus norvegicus. Description: Increase in tele-methylhistamine level in po dosed Sprague-Dawley rat brain. The format is functional, organism-based.
Data set [4] relates to Rattus norvegicus. In words: Plasma concentration in Sprague-Dawley rat at 10 mg/kg, po. Details: dose 10 mg/kg, route oral. The note with it: in vivo. The format is ADME, organism-based.
The nature of data set [5]: Half life in Sprague-Dawley rat at 1 mg/kg, iv. The class given is ADME, organism-based. Details: dose 1 mg/kg, route intravenous. The note with it: in vivo.
Data set [6] in a line: AUC (0 to infinity) in Sprague-Dawley rat at 3 mg/kg, po. The note with it: plasma. On the set-up: time infinity, dose 3 mg/kg, route oral. The class given is ADME, organism-based.
The target in a further data set is Histamine H1 receptor (Homo sapiens, UniProt P35367). Description: Inhibition of human histamine H1 receptor.
Chain of Histamine H1 receptor (P35367 whole entry): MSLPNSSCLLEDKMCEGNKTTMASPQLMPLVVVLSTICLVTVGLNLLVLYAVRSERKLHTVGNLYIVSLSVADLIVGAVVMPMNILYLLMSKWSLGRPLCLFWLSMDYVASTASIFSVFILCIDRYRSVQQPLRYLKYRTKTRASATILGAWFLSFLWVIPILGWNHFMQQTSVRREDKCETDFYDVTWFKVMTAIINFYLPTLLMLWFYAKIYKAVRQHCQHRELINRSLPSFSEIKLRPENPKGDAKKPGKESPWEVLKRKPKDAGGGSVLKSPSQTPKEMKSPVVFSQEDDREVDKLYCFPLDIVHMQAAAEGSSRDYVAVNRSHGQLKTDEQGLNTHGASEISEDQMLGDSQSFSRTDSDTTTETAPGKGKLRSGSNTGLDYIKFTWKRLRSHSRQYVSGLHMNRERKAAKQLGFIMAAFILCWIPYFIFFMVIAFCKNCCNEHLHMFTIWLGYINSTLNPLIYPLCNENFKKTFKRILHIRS
In data set [7] the target is T1, Alpha-1A adrenergic receptor (Homo sapiens, UniProt P35348).
T1 sequence (P35348 whole entry): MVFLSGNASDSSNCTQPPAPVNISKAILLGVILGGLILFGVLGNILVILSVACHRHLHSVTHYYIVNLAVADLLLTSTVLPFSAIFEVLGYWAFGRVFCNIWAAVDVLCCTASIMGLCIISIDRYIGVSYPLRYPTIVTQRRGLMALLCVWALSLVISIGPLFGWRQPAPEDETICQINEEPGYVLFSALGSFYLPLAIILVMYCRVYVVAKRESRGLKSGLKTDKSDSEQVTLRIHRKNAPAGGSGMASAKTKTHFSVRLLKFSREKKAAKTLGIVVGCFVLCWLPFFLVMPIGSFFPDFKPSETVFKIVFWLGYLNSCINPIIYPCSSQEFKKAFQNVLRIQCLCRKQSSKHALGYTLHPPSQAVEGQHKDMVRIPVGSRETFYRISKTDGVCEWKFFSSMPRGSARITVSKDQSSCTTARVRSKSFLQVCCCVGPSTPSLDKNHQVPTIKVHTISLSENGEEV
In words: Displacement of [3H]prazosin from human adrenergic alpha1A receptor expressed in LMtk- cells. The format is cell-based. For orientation: Displacement assays read how much labelled ligand stays bound in the presence of the test substance.

In a further data set the target is Histamine H4 receptor (Homo sapiens, UniProt Q9H3N8). In words: Inhibition of human histamine H4 receptor.
Chain of Histamine H4 receptor (Q9H3N8 whole entry): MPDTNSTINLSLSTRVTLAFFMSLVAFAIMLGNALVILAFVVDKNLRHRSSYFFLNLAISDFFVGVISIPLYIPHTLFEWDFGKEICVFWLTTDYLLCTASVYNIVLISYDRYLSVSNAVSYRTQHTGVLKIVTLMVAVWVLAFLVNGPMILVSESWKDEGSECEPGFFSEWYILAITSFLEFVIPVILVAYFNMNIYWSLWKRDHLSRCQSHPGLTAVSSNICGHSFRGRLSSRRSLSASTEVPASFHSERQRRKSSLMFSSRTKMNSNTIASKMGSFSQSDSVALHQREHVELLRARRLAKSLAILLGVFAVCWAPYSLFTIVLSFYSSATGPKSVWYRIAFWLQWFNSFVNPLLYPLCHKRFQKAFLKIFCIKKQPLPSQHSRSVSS
Data set [8] concerns Rattus norvegicus. In words: Plasma clearance in Sprague-Dawley rat at 1 mg/kg, iv. The class given is ADME, organism-based. On the set-up: dose 1 mg/kg, route intravenous. The conditions noted are these: in vivo.
The target in the next data set is Histamine H2 receptor (Homo sapiens, UniProt P25021). Description: Inhibition of human histamine H2 receptor.
Chain of Histamine H2 receptor (P25021 whole entry): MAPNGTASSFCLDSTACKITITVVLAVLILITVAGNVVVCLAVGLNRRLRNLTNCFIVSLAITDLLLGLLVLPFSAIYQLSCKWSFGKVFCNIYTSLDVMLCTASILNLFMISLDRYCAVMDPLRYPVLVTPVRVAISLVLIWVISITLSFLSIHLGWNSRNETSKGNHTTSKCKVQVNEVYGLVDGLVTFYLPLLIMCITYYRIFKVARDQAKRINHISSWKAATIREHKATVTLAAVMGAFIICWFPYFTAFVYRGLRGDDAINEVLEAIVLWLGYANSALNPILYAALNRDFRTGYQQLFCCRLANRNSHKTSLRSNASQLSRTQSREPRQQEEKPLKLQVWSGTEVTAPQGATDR
Data set [9] is described as follows: Cmax in Sprague-Dawley rat at 3 mg/kg, po. The format is ADME, organism-based. On the set-up: dose 3 mg/kg, route oral. The note with it: in vivo.

Structures are written as SMILES. pIC50: −log10 of the molar value.

Experimental findings from ChEMBL document CHEMBL1152163, “Development of novel 2-[4-(aminoalkoxy)phenyl]-4(3H)-quinazolinone derivatives as potent and selective histamine H3 receptor inverse agonists” (Bioorg Med Chem Lett, 2008) are described below.

As for `COc1nccc2c(=O)n(C)c(-c3ccc(OC4CCN(C5CCC5)CC4)cc3)nc12`, the Vd in data set [1] is 4.8 L/kg. In the data set on Brain, this compound showed a Drug uptake of 2.96 nmol/g. In [2], this compound displayed a bioavailability of 48%. For the same compound, the Activity entry with Rattus norvegicus [3] is “Dose-dependent effect”. The compound further displayed a concentration in the data set with Rattus norvegicus [4] of 2080 nM. Besides, the half-life in [5] is 2 h. The compound also showed an AUC(0-inf) in data set [6] of 2.1 µM·h. Further, the negative logarithm of the IC50 (pIC50) (on Histamine H1 receptor; in data set [7]; against Histamine H4 receptor; at Histamine H2 receptor) was less than 5.00 in each case. In addition, in the data set on Rattus norvegicus [8], the clearance is 29 mL/min/kg. The same compound showed a Cmax in [9] of 570 nM.
On to `O=c1c2ccccc2nc(-c2ccc(OCCCN3CCCCC3)cc2)n1Cc1ccccc1`, for which the pIC50 in data set [7] is 5.14.
The same measure, in the same setting: next, `Cc1nc2ccccc2c(=O)n1-c1ccc(OCCCN2CCCCC2)cc1`: 5.19; `COc1ccc2c(=O)n(C)c(-c3ccc(OC4CCN(C5CCC5)CC4)cc3)nc2c1`: less than 5.00; `Cn1c(-c2ccc(OCCCN3CCCC3)cc2)nc2ccccc2c1=O`: 5.66.
With `Cn1c(-c2ccc(OC3CCN(C4CCC4)CC3)cc2)nc2c(C(F)(F)F)cccc2c1=O`, in [7], the pIC50 was less than 5.00.
`COc1cccc2c(=O)n(C)c(-c3ccc(OC4CCN(C5CCC5)CC4)cc3)nc12`: the pIC50 in [7] was less than 5.00.
Consider `O=c1c2ccccc2nc(-c2ccc(OCCCN3CCCCC3)cc2)n1-c1ccccc1`, for which the pIC50 in data set [7] was 5.62.
In the case of `Cn1c(-c2ccc(OC3CCN(C4CCC4)CC3)cc2)nc2c(F)cccc2c1=O`, the pIC50 in data set [7] is 5.35.
The same measure, in the same setting: next, `CCn1c(-c2ccc(OCCCN3CCCCC3)cc2)nc2ccccc2c1=O`: 5.89.
Same read-out and setting: with `Cn1c(-c2ccc(OC3CCN(C4CCCC4)CC3)cc2)nc2ccccc2c1=O` the figure was 5.21.
Same read-out and setting: with `COc1cccc2nc(-c3ccc(OC4CCN(C5CCC5)CC4)cc3)n(C)c(=O)c12` the figure was 5.38; with `Cn1c(-c2ccc(OC3CCN(C4CCC4)CC3)cc2)nc2ccccc2c1=O`, 5.20.
On to `COc1ccc2nc(-c3ccc(OC4CCN(C5CCC5)CC4)cc3)n(C)c(=O)c2c1`, for which, in data set [7], the pIC50 is 5.23.
Same read-out and setting: with `Cn1c(-c2ccc(OCCCN3CCCCC3)cc2)nc2ccccc2c1=O` the figure was 5.54; with `Cn1c(-c2ccc(OC3CCN(C4CCC4)CC3)cc2)nc2c(Cl)cccc2c1=O`, 5.19; with `Cc1cccc2c(=O)n(C)c(-c3ccc(OC4CCN(C5CCC5)CC4)cc3)nc12`, 5.00.

For orientation: bioavailability means dose-corrected exposure relative to a reference, in per cent. Read a high bioavailability as good availability. What is called half-life is the time needed for the level to fall by half in the phase considered. A high value points to slow decline. The term AUC(0-inf) denotes the area under the concentration-time curve extrapolated to infinity. Low values mean low exposure, high ones high exposure. A word on the pIC50: it is −log10 of the IC50, conventionally taken in molar units. Low readings indicate a high IC50, high ones a low IC50. The term clearance denotes a measure of how efficiently the substance is removed, as volume per time. A low value points to inefficient removal. A word on the Cmax: it is the highest concentration seen after dosing.
